Test results published in ChEMBL document CHEMBL1201862, “PubChem BioAssay data set” (2004).
Calls of active or inactive are those of the source.

Key:
[1] = test system: HEK293; test: EBV LMP1 TES2 canonical NF-kB signalling blockers – cell-based, HEK293, luciferase, cherry-pick, dose response (AID 588343); assay type: functional; conditions: Homo sapiens
[2] = viability loss in HEK293 cells – cell-based, plate reader, cherry-picked samples, cytotoxicity control, dose response (AID 743446); assay type: functional
[3] = blockade of melanocortin 4 receptor signaling – cell-based, plate reader, cherry pick, counter-screen for LGR2 antagonist project, dose response (AID 743444); assay type: functional;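 also: transfected HEK 293 cells stimulated with alpha-MSH peptide; potency of inhibitors of the alpha-MSH evoked signal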
[4] = luciferase reporter signal suppression in cells – H4 neuroglioma cells, luminescence, dose response (AID 1990); assay type: functional, cell-based
[5] = A549 cell cytotoxicity, dose response, cytotoxicity control, plate reader, cherry-pick, antagonist series (AID 743412); assay type: functional, cell-based
[6] = blockers of bursicon-stimulated LGR2 cAMP reporter – cell-based, HEK293, CRE-luciferase reporter, cherry pick, set 2, dose response (AID 743343); assay type: functional;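 also: transfected cells were stimulated with diluted bursicon conditioned medium after compound addition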
[7] = biological target: T1, Heat shock factor protein 1 (Mus musculus, UniProt P38532); test: decrease of HSF1-responsive luciferase luminescence – cell-based, NIH3T3, dose retest, confirmation (AID 2382); assay type: functional;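 also: NIH3T3 fibroblasts with HSF1-driven luciferase reporter stressed by proteasome inhibitor MG132; luminescence from HSF1-driven luciferase expression after 8 hours of MG132 stress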
T1 sequence (P38532 whole entry): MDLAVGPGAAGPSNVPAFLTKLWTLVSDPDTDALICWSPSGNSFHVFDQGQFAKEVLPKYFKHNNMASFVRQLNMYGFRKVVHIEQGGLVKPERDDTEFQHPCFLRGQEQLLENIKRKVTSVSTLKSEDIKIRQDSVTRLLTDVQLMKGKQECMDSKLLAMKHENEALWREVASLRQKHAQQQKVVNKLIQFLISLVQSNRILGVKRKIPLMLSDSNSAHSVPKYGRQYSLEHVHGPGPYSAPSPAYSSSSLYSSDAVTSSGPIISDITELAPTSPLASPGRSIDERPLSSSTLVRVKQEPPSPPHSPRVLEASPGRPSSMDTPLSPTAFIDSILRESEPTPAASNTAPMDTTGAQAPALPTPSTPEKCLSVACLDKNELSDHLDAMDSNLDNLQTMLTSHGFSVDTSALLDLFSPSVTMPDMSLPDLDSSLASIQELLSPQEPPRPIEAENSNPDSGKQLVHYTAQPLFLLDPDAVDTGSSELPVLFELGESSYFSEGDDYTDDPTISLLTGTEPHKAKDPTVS

[8] = alpha-synuclein stem-loop luciferase translation blockers – H4 neuroglioma cells, luminescence, confirmation (AID 1988); assay type: functional, cell-based
[9] = Luminescence Cell-Based Dose Response HTS to Identify Inhibitors of 5'UTR Stem-Loop Driven Prion Protein mRNA Translation in H4 Neuroglioblastoma Cells. [Related pubchem assays: 1827 (Project Summary), 1813 (Primary HTS)]; assay type: functional
[10] = biological target: T2, Bcl-2-related protein A1 (Mus musculus, UniProt Q07440); assay type: functional;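 also: confirmatory dose–response counterscreen on Bfl-1, used to check hits from a UBC13 polyubiquitin inhibitor campaign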
T2 sequence (Q07440 whole entry): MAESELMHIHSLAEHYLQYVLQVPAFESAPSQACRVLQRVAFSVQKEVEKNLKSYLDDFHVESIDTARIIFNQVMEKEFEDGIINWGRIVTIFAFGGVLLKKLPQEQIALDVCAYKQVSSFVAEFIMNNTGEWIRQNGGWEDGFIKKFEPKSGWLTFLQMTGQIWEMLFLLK

[11] = biological target: T3, Ubiquitin-conjugating enzyme E2 N (Homo sapiens, UniProt P61088); assay type: functional
T3 sequence (P61088 whole entry): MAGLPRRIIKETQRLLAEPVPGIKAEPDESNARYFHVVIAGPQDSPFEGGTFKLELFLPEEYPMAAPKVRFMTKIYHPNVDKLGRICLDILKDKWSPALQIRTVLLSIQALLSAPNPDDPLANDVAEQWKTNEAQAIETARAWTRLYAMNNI

[12] = biological target: T3, Ubiquitin-conjugating enzyme E2 N; assay type: functional; remark: listed apart in the source
[13] = biological target: T4, RNA-binding protein pos-1 (Caenorhabditis elegans, UniProt G5EF15); test: disruptors of C. elegans POS-1 RNA interaction – biochemical, fluorescence polarization, dose response (AID 1964);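 also: purified POS-1 fused to maltose binding protein made in E. coli; potency of compounds blocking POS-1 binding to fluorescent RNA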
T4 sequence (G5EF15 whole entry): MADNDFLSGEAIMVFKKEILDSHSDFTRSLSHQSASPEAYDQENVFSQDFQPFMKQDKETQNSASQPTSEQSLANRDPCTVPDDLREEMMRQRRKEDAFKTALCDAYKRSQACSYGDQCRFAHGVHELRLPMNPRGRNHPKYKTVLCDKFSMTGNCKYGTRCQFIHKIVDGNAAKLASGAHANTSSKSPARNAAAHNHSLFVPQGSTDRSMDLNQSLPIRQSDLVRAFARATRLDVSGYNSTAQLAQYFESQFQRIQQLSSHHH

[14] = test system: Streptococcus sp. 'group A'; test: Streptococcus pyogenes SK(-)GAS viability under kanamycin – luminescence, BacTiterGlo, confirmation, counter-screen for streptokinase expression inhibitor project, dose response (AID 1900); assay type: functional, organism-based
[15] = test system: Streptococcus; test: GAS UMAA2166 growth inhibition – luminescence, BacTiterGlo, counter-screen for streptokinase expression inhibitor project, dose response (AID 1915); assay type: functional, organism-based;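 also: potency for reduction of bacterial viability or growth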
[16] = THP-1 cell cytotoxicity, dose response, cytotoxicity control for non-replicating M. tuberculosis project (AID 489025); assay type: functional
[17] = Vero E6 cell cytotoxicity, dose response, cytotoxicity control for non-replicating M. tuberculosis project, secondary assay (AID 492998); assay type: functional, VeroE6; conditions: Vero C1008
[18] = biological target: T5, Short transient receptor potential channel 4 (Mus musculus, UniProt Q9QUQ5); test: block of DAMGO-driven TRPC4 calcium entry – cell-based, HEK293 TRPC4/mu-opioid, Fluo-4 calcium, dose response (AID 434942); assay type: functional;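 also: potency of inhibitors blocking the TRPC4 calcium response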
T5 sequence (Q9QUQ5 whole entry): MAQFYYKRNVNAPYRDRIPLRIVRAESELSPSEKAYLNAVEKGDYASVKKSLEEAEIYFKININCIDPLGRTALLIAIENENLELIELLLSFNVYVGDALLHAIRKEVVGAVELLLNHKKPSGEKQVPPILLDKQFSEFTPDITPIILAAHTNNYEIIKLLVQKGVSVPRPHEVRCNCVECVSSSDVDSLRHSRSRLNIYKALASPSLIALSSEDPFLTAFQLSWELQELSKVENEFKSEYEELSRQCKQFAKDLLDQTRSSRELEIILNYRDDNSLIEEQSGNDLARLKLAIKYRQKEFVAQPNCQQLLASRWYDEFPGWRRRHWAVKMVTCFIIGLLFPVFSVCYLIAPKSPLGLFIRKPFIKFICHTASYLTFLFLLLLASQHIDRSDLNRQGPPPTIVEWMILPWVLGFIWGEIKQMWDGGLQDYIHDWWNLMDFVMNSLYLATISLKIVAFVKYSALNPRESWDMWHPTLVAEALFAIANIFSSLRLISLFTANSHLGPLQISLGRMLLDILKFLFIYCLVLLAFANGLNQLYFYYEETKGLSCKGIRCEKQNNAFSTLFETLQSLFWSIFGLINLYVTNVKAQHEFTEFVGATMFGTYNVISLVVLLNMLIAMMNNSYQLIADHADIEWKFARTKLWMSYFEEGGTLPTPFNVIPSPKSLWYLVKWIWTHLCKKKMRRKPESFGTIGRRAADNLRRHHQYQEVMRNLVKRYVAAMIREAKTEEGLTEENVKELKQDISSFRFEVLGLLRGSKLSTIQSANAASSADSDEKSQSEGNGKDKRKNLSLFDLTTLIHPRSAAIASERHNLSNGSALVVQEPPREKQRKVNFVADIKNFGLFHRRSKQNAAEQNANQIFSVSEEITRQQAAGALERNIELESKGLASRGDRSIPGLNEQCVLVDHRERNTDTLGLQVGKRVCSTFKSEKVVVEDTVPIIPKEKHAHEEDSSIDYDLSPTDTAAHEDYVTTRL

[19] = biological target: DNA dC->dU-editing enzyme APOBEC-3G (Homo sapiens, UniProt Q9HC16); assay type: functional;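 also: Dose-response counterscreen measuring inhibition of APOBEC3G DNA deaminase activity, run while confirming APOBEC3A inhibitors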
Sequence of DNA dC->dU-editing enzyme APOBEC-3G (Q9HC16 whole entry): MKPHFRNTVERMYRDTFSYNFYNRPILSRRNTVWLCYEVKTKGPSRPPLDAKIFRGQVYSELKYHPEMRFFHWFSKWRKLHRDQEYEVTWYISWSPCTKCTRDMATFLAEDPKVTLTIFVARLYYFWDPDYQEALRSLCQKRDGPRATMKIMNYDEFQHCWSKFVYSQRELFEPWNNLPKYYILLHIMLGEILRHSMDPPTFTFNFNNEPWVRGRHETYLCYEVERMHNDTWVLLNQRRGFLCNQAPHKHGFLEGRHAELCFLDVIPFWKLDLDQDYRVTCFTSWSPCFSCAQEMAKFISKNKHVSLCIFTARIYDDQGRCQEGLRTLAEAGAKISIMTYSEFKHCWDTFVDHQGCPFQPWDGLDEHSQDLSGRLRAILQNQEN

[20] = biological target: DNA dC->dU-editing enzyme APOBEC-3A (Homo sapiens, UniProt P31941); test: Dose Response confirmation of small molecule APOBEC3A DNA Deaminase Inhibitors via a fluorescence-based single-stranded DNA deaminase assay. [Related pubchem assays (depositor defined):AID493011, AID493024]; assay type: functional
Sequence of DNA dC->dU-editing enzyme APOBEC-3A (P31941 whole entry): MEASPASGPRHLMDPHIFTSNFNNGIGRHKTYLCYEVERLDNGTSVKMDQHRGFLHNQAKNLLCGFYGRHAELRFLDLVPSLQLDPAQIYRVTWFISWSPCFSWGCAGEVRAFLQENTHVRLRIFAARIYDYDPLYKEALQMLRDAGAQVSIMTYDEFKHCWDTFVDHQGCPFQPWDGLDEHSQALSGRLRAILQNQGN

[21] = cells; assay type: functional
[22] = test system: HEK293; test: inhibition of NOD1-driven NF-kB reporter – cell-based, luminescence, uHTS, primary screen (AID 1578); assay type: functional; conditions: Homo sapiens
[23] = test system: HEK293; test: NOD2 signaling inhibitors in MDP-stimulated cells, cell-based, uHTS, luminescence (AID 2001); assay type: functional; conditions: Homo sapiens
[24] = test system: HEK293; test: cells; assay type: functional, cell-based; conditions: Homo sapiens
[25] = test system: HEK293; test: cells; assay type: functional, cell-based; conditions: Homo sapiens; remark: listed apart in the source

Compound: COc1cccc(-c2nc3cc(N4CCN(C)CC4)ccc3[nH]2)c1
- AC50 [1]: 0.857 µM (active)
- AC50 [2]: > 52 µM (inactive)
- AC50 [3]: 1.57 µM (active)
- EC50 [4]: 9.73 µM (inconclusive)
- AC50 [5]: > 52 µM (inactive)
- AC50 [6]: 2.55 µM (active)
- EC50 [7]: < 0.16 µM (active)
- EC50 [8]: 9.34 µM (inconclusive)
- EC50 [9]: 5.7 µM (active)

Compound: Cc1ccc(C(C(=O)NCC2CCCO2)N(C(=O)c2snc(C(N)=O)c2N)c2ccc3c(c2)OCCO3)cc1 (stereo not given)
- IC50 [10]: > 20 µM (inactive)
- IC50 [11]: 12.6 µM (active)
- IC50 [12]: 13.1 µM (active)

Compound: CC/C(=C\C=C\[C@@H]1C=C[C@@H]2CCC[C@H]2[C@@H]1C(=O)c1ccc[nH]1)[C@@H]1O[C@@H]([C@@H](C)C(=O)O)CC[C@@H]1C
- EC50 [13]: > 300 µM (inconclusive)
- EC50 [14]: 0.202 µM (active)
- EC50 [4]: 14.2 µM (active)
- EC50 [15]: 0.147 µM (active)
- EC50 [8]: > 120 µM (not active)
- CC50 [16]: 12.4 µM (active)
- CC50 [17]: 16.5 µM (active)
- EC50 [9]: 14.4 µM (active)

Compound: O=c1c2ccccc2[nH]c(=S)n1CCN1CCN(Cc2ccccc2)CC1
- EC50 [18]: 4.73 µM (active)

Compound: CNC(=O)OCc1n(C)cc[n+]1C
- IC50 [19]: 1.31 µM (active)
- IC50 [20]: 1.76 µM (active)

Compound: Cc1cc(Cl)ccc1OCC(=O)NNC(=O)c1cnccn1
- IC50 [21]: 5.5 µM (active)
- CC50 [16]: > 40 µM (active)
- CC50 [17]: 13.7 µM (active)

Compound: O=C(c1ccc(Cl)cc1)C1CCCN(Cc2ccc3ncccc3c2)C1 (stereo not given)
- EC50 [22]: 4.42 µM (active)
- IC50 [23]: 5.78 µM (active)
- IC50 [24]: 3.92 µM (active)
- IC50 [25]: 15.5 µM (active)
